US8748483B2, “Use of substituted pyranone acid derivatives for the treatment of metabolic syndrome” (SANOFI, priority 2007, dated 2014)
Values belong to the compound of their own block, whether it stands above or below them.

Key:
[1] = target: T1, GPCR HM74A (niacin receptor) (Homo sapiens, UniProt Q8TDS4); assay: FLIPR in vitro functional assay, intracellular Ca2+ in recombinant HEK293 cells expressing HM74A and Gα6qi4myr; format: cell-based; details: 100% = 1 μM niacin
T1 construct: expressed in transfected cells; host or cells: HEK293
T1 sequence (Q8TDS4 whole entry): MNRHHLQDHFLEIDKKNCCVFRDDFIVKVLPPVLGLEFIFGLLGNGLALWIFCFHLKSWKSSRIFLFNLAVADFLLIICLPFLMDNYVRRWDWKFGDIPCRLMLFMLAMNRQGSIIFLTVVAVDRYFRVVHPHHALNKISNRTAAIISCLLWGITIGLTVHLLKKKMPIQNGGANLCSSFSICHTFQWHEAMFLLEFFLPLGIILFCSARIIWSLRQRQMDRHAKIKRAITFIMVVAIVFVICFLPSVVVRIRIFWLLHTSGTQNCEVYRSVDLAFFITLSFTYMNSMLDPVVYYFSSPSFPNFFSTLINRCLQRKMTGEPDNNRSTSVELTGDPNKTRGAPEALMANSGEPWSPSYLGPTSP
Experimental: Function-testing assays were carried out by means of the FLIPR technique (“Fluorescence Imaging Plate Reader”, Molecular Devices Corp.). For this purpose, agonist-induced changes in the intracellular concentration of Ca^2+ in recombinant HEK293 cells which express both the GPCR HM74A (niacin receptor) and the hybrid G-protein Gα6qi4myr (see, for example, DE patent application 10033353) were determined.
For the investigations, cells were seeded into 96-well microtiter plates (60 000 cells/well) and allowed to grow overnight. The medium was removed and the cells were incubated in buffer which contained the fluorescent dye Fluo-4. After this loading with dye, the cells were washed, test substance was added, and changes in the intracellular Ca^2+ concentration were measured in the FLIPR apparatus. Results have been shown as percentage change relative to the control (0%: no test substance added; 100%:1 μM reference agonist niacin added), used to calculate dose/activity plots and EC50 values determined.

lipolysis = assay: Inhibition of lipolysis in the whole animal after p.o. administration (FFA, glycerol, triglycerides in blood); format: in vivo, Wistar rats
Experimental: The effect was tested on the whole animal (mouse, rat, hamster or dog), after a fasting period (e.g. of about 16 hours the substance is administered (e.g. p.o., iv., i.p., s.c.) and, with or without additional stimulation of endogenous lipolysis (e.g. by a bolus injection of 2 mg/kg i.p. isoprenaline), the effect of the test substance on lipolysis is determined on the basis of the liberated free fatty acids (FFA), glycerol and triglycerides by obtaining a blood sample (e.g. by retroorbital blood sampling) e.g. 15 min, 30, 60, 120 etc minutes after p.o. administration, and analyzing by standard methods of clinical chemistry (e.g. L. Thomas: Labor and Diagnose, 2nd edition, Medizinische Verlagsgesellschaft, Marburg/L. 1984; ISBN 3-921320-10-9)). The inhibition of lipolysis by the inhibitors is analyzed by comparing with the rate of lipolysis in correspondingly treated control animals.

[2] = 10 mg/kg po, 30 min, Wistar rats
[3] = 10 mg/kg po, 60 min, Wistar rats
[4] = 10 mg/kg po, 120 min, Wistar rats
[5] = 10 mg/kg po, time 0, Wistar rats
[6] = 3 mg/kg po, 15 min, Wistar rats
[7] = 3 mg/kg po, 30 min, Wistar rats
[8] = 3 mg/kg po, 60 min, Wistar rats
[9] = 3 mg/kg po, 120 min, Wistar rats
[10] = 3 mg/kg po, time 0, Wistar rats
[11] = 1 mg/kg po, 30 min, Wistar rats
[12] = 1 mg/kg po, 60 min, Wistar rats
[13] = 1 mg/kg po, 120 min, Wistar rats
[14] = 1 mg/kg po, time 0, Wistar rats

EC50 [1]: 7.43 µM
Compound: O=C(O)c1cc(=O)c(OCc2ccc(Cl)cc2)co1 [Example 31]

EC50 [1]: 0.22 µM
Compound: CC(C)Cc1coc(C(=O)O)cc1=O [Example 51]

EC50 [1]: 67.1 µM
Compound: N#Cc1cccc(COc2coc(C(=O)O)cc2=O)c1 [Example 15]

EC50 [1]: 66.7 µM
Compound: CCCc1cc(=O)cc(C(=O)O)o1 [Example 37, 6-propyl-4-oxo-4H-pyran-2-carboxylic acid]

EC50 [1]: 14.7 µM
Compound: N#Cc1ccc(COc2coc(C(=O)O)cc2=O)cc1 [Example 10]

EC50 [1]: 4.4 µM
Compound: CCCc1oc(C(=O)O)cc(=O)c1OCc1ccc(C)cc1 [Example 21, 5-(4-methylbenzyloxy)-4-oxo-6-propyl-4H-pyran-2-carboxylic acid]

EC50 [1]: 0.76 µM
Compound: O=C(O)c1cc(=O)c(OCCCF)co1 [Example 25]

EC50 [1]: 0.73 µM
Compound: C/C=C/c1oc(C(=O)O)cc(=O)c1OCC [Example 20]

EC50 [1]: 1.03 µM
Compound: CCC/C=C/c1coc(C(=O)O)cc1=O [Example 43]

EC50 [1]: 1.48 µM
Compound: CC(C)c1ccc(COc2coc(C(=O)O)cc2=O)cc1 [Example 32]

EC50 [1]: 29.9 µM
Compound: C=CCOc1coc(C(=O)O)cc1=O [Example 4]

EC50 [1]: 1.2 µM
Compound: CCCCCOc1coc(C(=O)O)cc1=O [Example 5]

EC50 [1]: 45 µM
Compound: CCCc1oc(C(=O)O)cc(=O)c1OCc1ccc(C#N)cc1 [Example 22]

EC50 [1]: 62.8 µM
Compound: O=C(O)c1cc(=O)c(OCc2cccc(F)c2)co1 [Example 7]

EC50 [1]: 6.87 µM
Compound: CC(C)OC(=O)/C=C/c1coc(C(=O)O)cc1=O [Example 41]

EC50 [1]: 0.31 µM
Compound: N#Cc1ccc(C(=O)Oc2coc(C(=O)O)cc2=O)cc1 [Example 34]

EC50 [1]: 1.19 µM
Compound: Cc1ccc(C(=O)Oc2coc(C(=O)O)cc2=O)cc1 [Example 35]

EC50 [1]: 0.07 µM
Compound: C/C=C/c1oc(C(=O)O)cc(=O)c1OCC(F)(F)F [Example 36]

EC50 [1]: 3.24 µM
Compound: CCc1ccc(COc2coc(C(=O)O)cc2=O)cc1 [Example 30]

EC50 [1]: 28.8 µM
Compound: O=C(O)c1cc(=O)c(OCc2ccccc2)co1 [Example 3]

EC50 [1]: 1.19 µM
Compound: CCOC(=O)/C=C/c1coc(C(=O)O)cc1=O [Example 40, 5-((E)-2-ethoxycarbonylvinyl)-4-oxo-4H-pyran-2-carboxylic acid]

EC50 [1]: 2.69 µM
Compound: CC(C)c1coc(C(=O)O)cc1=O [Example 52]

EC50 [1]: 0.05 µM
Compound: CCCc1coc(C(=O)O)cc1=O [Example 48, 5-propyl-4-oxo-4H-pyran-2-carboxylic acid]
lipolysis (reduction in FFA, glycerol and triglycerides) (lipolysis; 10 mg/kg po): distinctly reduced
FFA (lipolysis; [2]): 0.19 mmol/L
Glycerol (lipolysis; [2]): 35 µmol/L
Triglycerides (lipolysis; [2]): 0.36 mmol/L
FFA (lipolysis; [3]): 0.19 mmol/L
Glycerol (lipolysis; [3]): 26 µmol/L
Triglycerides (lipolysis; [3]): 0.25 mmol/L
FFA (lipolysis; [4]): 0.16 mmol/L
Glycerol (lipolysis; [4]): 24 µmol/L
Triglycerides (lipolysis; [4]): 0.27 mmol/L
FFA (lipolysis; [5]): 0.51 mmol/L
Glycerol (lipolysis; [5]): 100 µmol/L
Triglycerides (lipolysis; [5]): 0.41 mmol/L

EC50 [1]: 4.61 µM
Compound: CC(C)Oc1coc(C(=O)O)cc1=O [Example 27]

EC50 [1]: 52.9 µM
Compound: CCCCOc1coc(C(=O)O)cc1=O [Example 6]

EC50 [1]: 4.83 µM
Compound: Cc1ccc(/C=C/c2coc(C(=O)O)cc2=O)cc1 [Example 44]

EC50 [1]: 6.6 µM
Compound: C=C(CCC)c1coc(C(=O)O)cc1=O [Example 42]

EC50 [1]: 22.4 µM
Compound: O=C(O)c1cc(=O)c(OCc2ccc(OC(F)(F)F)cc2)co1 [Example 33]

EC50 [1]: 45.1 µM
Compound: O=C(O)c1cc(=O)c(OCc2ccc(C(F)(F)F)cc2)co1 [Example 29]

EC50 [1]: 0.16 µM
Compound: CCC(C)c1coc(C(=O)O)cc1=O (centres unmarked) [Example 50]
lipolysis (reduction in FFA, glycerol and triglycerides) (lipolysis; 3 mg/kg po): distinctly reduced
FFA (lipolysis; [6]): 0.34 mmol/L
Glycerol (lipolysis; [6]): 67 µmol/L
Triglycerides (lipolysis; [6]): 0.39 mmol/L
FFA (lipolysis; [7]): 0.43 mmol/L
Glycerol (lipolysis; [7]): 82 µmol/L
Triglycerides (lipolysis; [7]): 0.36 mmol/L
FFA (lipolysis; [8]): 0.50 mmol/L
Glycerol (lipolysis; [8]): 86 µmol/L
Triglycerides (lipolysis; [8]): 0.58 mmol/L
FFA (lipolysis; [9]): 0.52 mmol/L
Glycerol (lipolysis; [9]): 101 µmol/L
Triglycerides (lipolysis; [9]): 0.71 mmol/L
FFA (lipolysis; [10]): 0.64 mmol/L
Glycerol (lipolysis; [10]): 127 µmol/L
Triglycerides (lipolysis; [10]): 0.47 mmol/L

EC50 [1]: 36.8 µM
Compound: O=C(O)c1cc(=O)c(OCc2cccc([N+](=O)[O-])c2)co1 [Example 8]

EC50 [1]: 0.21 µM
Compound: CC(C)CCc1coc(C(=O)O)cc1=O [Example 49, 5-(3-methylbutyl)-4-oxo-4H-pyran-2-carboxylic acid]

EC50 [1]: 0.01 µM
Compound: CCCCc1coc(C(=O)O)cc1=O [Example 47]
lipolysis (reduction in FFA, glycerol and triglycerides) (lipolysis; 1 mg/kg po): distinctly reduced
FFA (lipolysis; [11]): 0.25 mmol/L
Glycerol (lipolysis; [11]): 41 µmol/L
Triglycerides (lipolysis; [11]): 0.25 mmol/L
FFA (lipolysis; [12]): 0.37 mmol/L
Glycerol (lipolysis; [12]): 55 µmol/L
Triglycerides (lipolysis; [12]): 0.37 mmol/L
FFA (lipolysis; [13]): 0.41 mmol/L
Glycerol (lipolysis; [13]): 70 µmol/L
Triglycerides (lipolysis; [13]): 0.41 mmol/L
FFA (lipolysis; [14]): 0.84 mmol/L
Glycerol (lipolysis; [14]): 162 µmol/L
Triglycerides (lipolysis; [14]): 0.84 mmol/L

EC50 [1]: 0.09 µM
Compound: O=C(O)c1cc(=O)cco1 [Example 1]
lipolysis (reduction in FFA, glycerol and triglycerides) (lipolysis; 3 mg/kg po): distinctly reduced
FFA (lipolysis; [6]): 0.22 mmol/L
Glycerol (lipolysis; [6]): 55 µmol/L
Triglycerides (lipolysis; [6]): 0.48 mmol/L
FFA (lipolysis; [7]): 0.14 mmol/L
Glycerol (lipolysis; [7]): 43 µmol/L
Triglycerides (lipolysis; [7]): 0.28 mmol/L
FFA (lipolysis; [8]): 0.16 mmol/L
Glycerol (lipolysis; [8]): 43 µmol/L
Triglycerides (lipolysis; [8]): 0.21 mmol/L
FFA (lipolysis; [9]): 0.28 mmol/L
Glycerol (lipolysis; [9]): 74 µmol/L
Triglycerides (lipolysis; [9]): 0.25 mmol/L
FFA (lipolysis; [10]): 0.55 mmol/L
Glycerol (lipolysis; [10]): 117 µmol/L
Triglycerides (lipolysis; [10]): 0.53 mmol/L

EC50 [1]: 31.2 µM
Compound: Cc1cc(C)cc(COc2coc(C(=O)O)cc2=O)c1 [Example 11]

EC50 [1]: 12.1 µM
Compound: O=C(O)c1cc(=O)c(OCc2ccccc2F)co1 [Example 14]

EC50 [1]: 1.19 µM
Compound: COC(=O)/C=C/c1coc(C(=O)O)cc1=O [Example 39]

EC50 [1]: 1.81 µM
Compound: O=C(O)c1cc(=O)c(OCc2ccc(OC(F)F)cc2)co1 [Example 28]

EC50 [1]: 4.12 µM
Compound: Cc1ccc(COc2coc(C(=O)O)cc2=O)cc1 [Example 2, 5-(4-methylbenzyloxy)-4-oxo-4H-pyran-2-carboxylic acid]

EC50 [1]: 43.4 µM
Compound: O=C(O)c1cc(=O)c(OCc2ccc([N+](=O)[O-])cc2)co1 [Example 9]

EC50 [1]: 0.39 µM
Compound: C/C=C/c1oc(C(=O)O)cc(=O)c1OCCCCC [Example 19]

EC50 [1]: 0.1 µM
Compound: C/C=C/c1oc(C(=O)O)cc(=O)c1OCc1ccc(C)cc1 [Example 16, 5-(4-methylbenzyloxy)-4-oxo-6-propenyl-4H-pyran-2-carboxylic acid]

EC50 [1]: 34.2 µM
Compound: CCCCCCOc1coc(C(=O)O)cc1=O [Example 23]

EC50 [1]: 10.8 µM
Compound: O=C(O)c1cc(=O)c(/C=C/CCc2ccccc2)co1 [Example 45]

EC50 [1]: 0.14 µM
Compound: C/C=C/c1oc(C(=O)O)cc(=O)c1CCCC [Example 38]

EC50 [1]: 0.36 µM
Compound: C/C=C/c1oc(C(=O)O)cc(=O)c1OCc1ccc(C#N)cc1 [Example 18]

EC50 [1]: 0.01 µM
Compound: CCCCCc1coc(C(=O)O)cc1=O [Example 46]

EC50 [1]: 49.5 µM
Compound: O=C(O)c1cc(=O)c(OCc2ccc(F)cc2)co1 [Example 12]

EC50 [1]: 1 µM
Compound: O=C(O)c1cc(=O)c(OCC(F)(F)F)co1 [Example 24]

EC50 [1]: 0.24 µM
Compound: C/C=C/c1oc(C(=O)O)cc(=O)c1OCc1ccc([N+](=O)[O-])cc1 [Example 17]

EC50 [1]: 45.3 µM
Compound: CC(C)COc1coc(C(=O)O)cc1=O [Example 26]

EC50 [1]: 19.5 µM
Compound: O=C(O)c1cc(=O)c(OCc2cccc(Cl)c2)co1 [Example 13]
